Reference: patent US4873238A, “2-Pyridinecarbothioamides and pharmaceutical compositions comprising the same” (American Home Products Corporation, priority 1988, dated 1989)
Counter-ions that a name gives are not always drawn.

Tests used:
[1] = tested on: gastric mucosal lesions produced by ethanol; test: Ethanol induced cytotoxicity in rats (prevention of gastric mucosal lesions); type: in vivo, Male Sprague-Dawley rats; conditions: for ED50: Rattus norvegicus, po; for % Inhibition of lesion formation: 10 mg/kg oral, 1 hour prior to ethanol, rat
Experimental: The purpose of this assay is to evaluate the effectiveness of the compounds of the present invention in preventing the formation of gastric mucosal lesions produced by ethanol. The assay is based on A. Robert et al., Gastroenterology 77, 433-443 (1979). Male Sprague-Dawley rats weighing between 120-150 grams were fasted for 24 hours prior to the experiment (water ad libitum). At least two hours before dosing, the animals were placed in individual cages with wire grid bottoms and denied access to water. Ethanol was administered orally at 1 mL per animal. The compounds of the present invention were dissolved in water or suspended in water with 0.5% carboxymethylcellulose and administered orally at a dose based on an appropriate standard giving ED50 to ED75 response of cytoprotective activity. The rats were randomly divided into groups of equal number, ordinarily 10 to a group. The rats were weighed and the individual weights were recorded. Exactly 1 hour prior to the administration of ethanol, the screening group was treated with the compounds of the present invention and the control group with the vehicle. One hour after administering the ethanol, the animals were euthanized. The stomachs were removed, cut along the greater curvature, and cleansed of all debris with tap water. The stomachs were set aside and kept moist with saline until the lesions were scored. Macroscopic lesions on the gastric mucosa were numerically graded. The final grade assigned a stomach was the sum of all the grades. Streaks longer than 6 mm are graded in multiples of 2 mm. The degree of cytotoxicity occuring in each group is represented as the mean ±SE ulcer grade. The mean of each treatment group was compared to the control group and expressed as the % inhibition of lesion formation.

[2] = tested on: stress-induced ulcers; test: Stress-induced gastric ulcers in rats; type: in vivo, Male rats; conditions: oral or parenteral, usually 15 to 45 minutes prior to stress; restraint at 4-5 °C for 3 hours; sodium taurocholate 20 mg p.o.; rat; read-out: Stress-Induced Ulcer ED50
Experimental: The purpose of this assay is to evaluate the effectiveness of the compounds of the present invention in preventing stress-induced ulcers. Male rats (280-380 g) were fasted for 18 hours (water available ad libitum) prior to use in experiments. Eight to twelve rats were used per group. Drug solutions or suspensions were prepared in physiological saline solution. Suspensions were prepared with the aid of 0.5% carboxymethylcellulose in physiological saline solution. Drugs were administered orally or parenterally at predetermined intervals (usually 15 to 45 minutes) prior to stress. This test procedure is according to the method of Senay et al., Proc. Soc. Exp. Biol. Med. 124, 1221 (1967), modified to produce a more consistent ulcer incidence. After drug administration, the rats were immobilized in metallic restrainers and placed in a cold room at 4°-5° C. for 3 hours before they were euthanized. Each rat was given 20 mg of sodium taurocholate p.o. immediately before placing it in the restrainer. After euthanizing the rats, the stomachs were excised and examined. Macroscopic ulcers were subjectively assigned a grade from 1 to 3 on the basis of increasing size. The number of ulcers in each size category was determined and multiplied by the respective grade; the addition of the resultant values gave the cumulative ulcer score. The average cumulative ulcer score of each […] group was compared to that of the control group and the percent inhibition of ulcer formation was calculated. When the responses obtained were directly proportional to the doses employed, ED50 values were determined from the dose-response curves obtained.

[3] = tested on: ethanol-induced ulcer; conditions: antisecretory agents; cited from earlier work

Fc1ccc(NC(=S)c2ccccn2)cc1Cn1ccnc1 [Example 1, N-[4-fluoro-3-[(1H-imidazol-1-yl)methyl]phenyl]-2-pyridinecarbothioamide] showed an ED50 [1] of 0.88 mg/kg.

With Fc1ccc(NC(=S)c2ccccn2)cc1CN1CCCCC1 [Example 2, N-[4-Fluoro-3-(piperidinylmethyl)phenyl]-2-pyridinecarbothioamide Hydrochloride] the ED50 [1] was 2.6 mg/kg.

In the case of N#Cc1ccc(NC(=S)c2ccccn2)cc1 [Example 3, N-(4-Cyanophenyl)-2-pyridinecarbothioamide], the ED50 [2] is reported as 1.7 mg/kg and the ED50 [1] is reported as 1.1 mg/kg.

With N#Cc1cccc(NC(=S)c2ccccn2)c1 [Example 4, N-(3-cyanophenyl)-2-pyridinecarbothioamide] the ED50 [1] was 1.6 mg/kg.

With Cl.Cl.O.S=C(Nc1cccc(Cn2ccnc2)c1)c1ccccn1 [Example 5, N-[3-[(1H-Imidazol-1-yl)methyl]phenyl]-2-pyridinecarbothioamide Dihydrochloride Hydrate] the ED50 [2] was 1.9 mg/kg and the ED50 [1] was 2.2 mg/kg.

Compound S=C(Nc1cccc(CN2CCCCC2)c1)c1ccccn1 [Example 6, N-[3-(piperidinylmethyl)phenyl]-2-pyridinecarbothioamide] has an ED50 [2] of 4.6 mg/kg and an ED50 [1] of 5.3 mg/kg.

S=C(Nc1ccc(CN2CCCCC2)cc1)c1ccccn1 [Example 7, N-[4-(piperidinylmethyl)phenyl]-2-pyridinecarbothioamide] showed an ED50 [1] of 6.2 mg/kg.

With S=C(Nc1cccc(CN2CCOCC2)c1)c1ccccn1 [Example 8, N-[3-[(4-Morpholinyl)methyl]phenyl]-2-pyridinecarbothioamide] the “% Inhibition of lesion formation” value [1] was 64%.

For S=C(Nc1cccc(CN2CCSCC2)c1)c1ccccn1 [Example 9, N-[3-[(4-thiomorpholinyl)methyl]phenyl]-2-pyridinecarbothioamide], the “% Inhibition of lesion formation” value [1] was 32%.

With CN1CCN(Cc2cccc(NC(=S)c3ccccn3)c2)CC1 [Example 10, N-[3-[(4-methyl-1-piperazinyl)methyl]phenyl]-2-pyridinecarbothioamide dihydrochloride hemihydrate] the “% Inhibition of lesion formation” value [1] was 10%.

For CN/C(=N/CCSCc1nc[nH]c1C)NC#N [cimetidine], the “Protection in the ethanol-induced ulcer model” value [3] is listed as “do not protect”.

In the case of CC(C)[N+](C)(CCOC(=O)C1c2ccccc2Oc2ccccc21)C(C)C [propantheline bromide], the “Protection in the ethanol-induced ulcer model” value [3] is listed as “do not protect”.
